{"source": "patent US9493537B2", "about": "“Compounds with reduced ring size for use in diagnosing and treating melanoma, including metastatic melanoma and methods related to same” (STC.UNM, priority 2009, dated 2016)", "key": {"[1]": {"assay": "In vitro serum stability in mouse serum", "format": "in vitro ADME", "conditions": "37° C., 24 h", "experimental": "After the incubation, 10 μL of 0.5% EDTA aqueous solution was added into the reaction vial to scavenge potential unbound ^111In^3+ ions. The radiolabeled peptide was purified to single species by Waters RP-HPLC (Milford, Mass.) on a Grace Vydac C-18 reverse phase analytical column (Deerfield, Ill.) using a 20-minute gradient of 18-28% acetonitrile in 20 mM HCl aqueous solution with a flow rate of 1.0 mL/min. Purified peptide sample was purged with N2 gas for 20 minutes to remove the acetonitrile. The pH of final solution was adjusted to 7.4 with 0.1 N NaOH and sterile normal saline for animal studies.\nBriefly, 50 μL of ^111InCl3 (37-74 MBq in 0.05 M HCl aqueous solution), 10 μL of 1 mg/mL peptide aqueous solution and 400 μL of 0.5 M NH4OAc (pH 4.5) were added into a reaction vial and incubated at 75° C. for 45 mins. After the incubation, 10 μL of 0.5% EDTA (ethylenediaminetetraacetic acid) aqueous solution was added into the reaction vial to scavenge potential unbound ^111In^3+ ions. The radiolabeled complexes were purified to single species by Waters RP-HPLC (Milford, Mass.) on a Grace Vydac C-18 reverse phase analytical column (Deerfield, Ill.) using the following gradient at a 1 mL/min flowrate. The mobile phase consisted of solvent A (20 mM HCl aqueous solution) and solvent B (100% CH3CN). The gradient was initiated and kept at 82:18 A/B for 3 mins followed by a linear gradient of 82:18 A/B to 72:28 A/B over 20 mins. Then, the gradient was changed from 72:28 A/B to 10:90 A/B over 3 mins followed by an additional 5 mins at 10:90 A/B. Thereafter, the gradient was changed from 10:90 AB to 82:18 AB over 3 mins. Each purified peptide sample was purged with N2 gas for 20 mins to remove the acetonitrile. The pH of the final solution was adjusted to 7.4 with 0.1 N NaOH and sterile saline for animal studies. In vitro serum stability of ^111In-DOTA-GGNle-CycMSHhex and ^111In-DOTA-GENle-CycMSHhex were determined by incubation in mouse serum at 37° C. for 24 h and monitored for degradation by RP-HPLC."}, "B16/F1 melanoma [2]": {"test_system": "B16/F1 melanoma", "assay": "Biodistribution in B16/F1 melanoma-bearing C57 mice", "format": "in vivo", "experimental": "All the animal studies were conducted in compliance with Institutional Animal Care and Use Committee approval. The mice were housed five animals per cage in sterile micro-isolator cages in a temperature- and humidity-controlled room with a 12-h light/12-h dark schedule. […] C57 mice were subcutaneously inoculated on the right flank with 1×10^6 B16/F1 cells. The weight of tumors reached approximately 0.2 g 10 days post cell inoculation. […] Groups of 5 mice were sacrificed at 0.5, 2, 4 and 24 h post-injection, and tumors and organs of interest were harvested, weighed and counted. Blood values were taken as 6.5% of the whole-body weight. […] The mice were sacrificed at 2 h post-injection. The tumor and organs of interest were harvested, weighed and counted.\nAll animal studies were conducted in compliance with Institutional Animal Care and Use Committee approval. The pharmacokinetics of ^111In-DOTA-GGNle-CycMSHhex and ^111In-DOTA-GENle-CycMSHhex were determined in B16/F1 melanoma-bearing C57 female mice (Harlan, Indianapolis, Ind.). The C57 mice were subcutaneously inoculated with 1×10^6 B16/F1 cells on the right flank for each mouse to generate B16/F1 melanomas. Ten days post inoculation, the tumor weights reached approximately 0.2 g. Each melanoma-bearing mouse was injected with 0.037 MBq of ^111In-DOTA-GGNle-CycMSHhex or ^111In-DOTA-GENle-CycMSHhex via the tail vein. Groups of 5 mice were sacrificed at 0.5, 2, 4 and 24 h post-injection, and tumors and organs of interest were harvested, weighed and counted. Blood values were taken as 6.5% of the whole-body weight. The specificities of the tumor uptake of ^111In-DOTA-GGNle-CycMSHhex and ^111In-DOTA-GENle-CycMSHhex were determined by co-injecting 10 μg (6.07 nmol) of unlabeled NDP-MSH which is a linear α-MSH peptide analogue with picomolar MC1 receptor binding affinity."}, "[3]": {"assay": "Metabolites in urine and melanoma by RP-HPLC", "format": "in vivo, C57 mice", "conditions": "urine, 2 h post-injection", "experimental": "The mouse used for the imaging study (2 h post-injection) described above was euthanized and the urine was collected for identifying the metabolites. The urinary sample was centrifuged at 16,000 g for 5 min prior to the HPLC analysis. The radioactive metabolite in the urine was analyzed by injecting aliquots of urine into the HPLC. A 20-minute gradient of 18-28% acetonitrile/20 mM HCl was used for the urine analysis.\nBoth melanoma and urine were collected from the mouse used for SPECT/CT imaging to analyze the metabolites of ^111In-DOTA-GGNle-CycMSHhex in melanoma and urine. The tumor was homogenized by a VWR homogenizer for 5 mins. Equal volume of ethanol was added into the tumor sample. The tumor sample was vortexed and then centrifuged at 16,000 g for 5 mins. The supernatant was transferred into a glass test tube and purged with N2 gas for 20 mins to remove the ethanol. Aliquots of the supernatant were injected into HPLC. The urinary sample was directly centrifuged at 16,000 g for 5 mins prior to the HPLC analysis. Thereafter, aliquots of the urine were injected into HPLC. The HPLC gradient described above was used for the analyses of metabolites."}, "B16/F1 melanoma [4]": {"test_system": "B16/F1 melanoma", "conditions": "literature, cited from earlier work"}}, "note": "Where two headings read alike, the source gives them in different places."}
{"molecule": "CCCC[C@H](NC(=O)CN1CCN(CC(=O)O)CCN(CC(=O)O)CCN(CC(=O)O)CC1)C(=O)N[C@H]1CC(=O)NCCCC[C@@H](C(N)=O)NC(=O)[C@H](Cc2c[nH]c3ccccc23)NC(=O)[C@H](CCCNC(=N)N)NC(=O)[C@@H](Cc2ccccc2)NC(=O)[C@H](Cc2c[nH]cn2)NC1=O", "note": "[^111In-DOTA-Nle-CycMSHhex, metal not drawn]", "values": [{"measurement": "serum stability by RP-HPLC", "setting": "[1]", "value": "stable"}, {"measurement": "tumor uptake with NDP-MSH co-injection as percent of tumor uptake without", "setting": "B16/F1 melanoma [2]; 10 μg NDP-MSH, 2 h after dose administration", "value": 4.2, "unit": "%"}, {"measurement": "Kidneys uptake", "setting": "B16/F1 melanoma [2]; 0.5 h post-injection", "value": "16.20±4.32", "unit": "% ID/g"}, {"measurement": "Tumor uptake", "setting": "B16/F1 melanoma [2]; 0.5 h post-injection", "value": "24.94±4.58", "unit": "% ID/g"}, {"measurement": "Tumor uptake", "setting": "B16/F1 melanoma [2]; 2 h post-injection", "value": "19.39±2.72", "unit": "% ID/g"}, {"measurement": "reduction of kidney uptake by L-lysine co-injection", "setting": "B16/F1 melanoma [2]; 2 h post-injection", "value": 30, "unit": "%"}, {"measurement": "renal uptake as percent of that of ^111In-DOTA-GlyGlu-CycMSH", "setting": "B16/F1 melanoma [2]; 2 h post-injection", "value": 72.8, "unit": "%"}, {"measurement": "tumor uptake, times that of ^111In-DOTA-GlyGlu-CycMSH", "setting": "B16/F1 melanoma [2]; 2 h post-injection", "value": 1.86, "unit": "times"}, {"measurement": "Tumor uptake", "setting": "B16/F1 melanoma [2]; 4 h post-injection", "value": "17.01±2.54", "unit": "% ID/g"}, {"measurement": "liver uptake as percent of that of ^99mTc(CO)3-pz-βAla-Nle-cyclo[Asp-His-D-Phe-Arg-Trp-Lys]-NH2", "setting": "B16/F1 melanoma [2]; 4 h post-injection", "value": 7.5, "unit": "%"}, {"measurement": "renal uptake as percent of that of ^99mTc(CO)3-pz-βAla-Nle-cyclo[Asp-His-D-Phe-Arg-Trp-Lys]-NH2", "setting": "B16/F1 melanoma [2]; 4 h post-injection", "value": 31.1, "unit": "%"}, {"measurement": "renal uptake as percent of that of ^111In-DOTA-GlyGlu-CycMSH", "setting": "B16/F1 melanoma [2]; 4 h post-injection", "value": 82.4, "unit": "%"}, {"measurement": "tumor uptake, times that of ^99mTc(CO)3-pz-βAla-Nle-cyclo[Asp-His-D-Phe-Arg-Trp-Lys]-NH2", "setting": "B16/F1 melanoma [2]; 4 h post-injection", "value": 1.5, "unit": "times"}, {"measurement": "Kidneys uptake", "setting": "B16/F1 melanoma [2]; 24 h post-injection", "value": "9.31±0.91", "unit": "% ID/g"}, {"measurement": "Tumor uptake", "setting": "B16/F1 melanoma [2]; 24 h post-injection", "value": "10.53±1.11", "unit": "% ID/g"}, {"measurement": "tumor activity at 2 h remaining in tumors at 24 h", "setting": "B16/F1 melanoma [2]; 24 h post-injection", "value": 54.3, "unit": "%"}, {"measurement": "urinary metabolites by HPLC", "setting": "[3]", "value": "remained intact"}, {"measurement": "tumor (melanoma) uptake", "setting": "B16/F1 melanoma [4]; 0.5 h post-injection", "value": "24.94±4.58", "unit": "% ID/g"}, {"measurement": "tumor (melanoma) uptake", "setting": "B16/F1 melanoma [4]; 2 h post-injection", "value": "19.39±1.65", "unit": "% ID/g"}, {"measurement": "tumor (melanoma) uptake", "setting": "B16/F1 melanoma [4]; 4 h post-injection", "value": "17.01±2.54", "unit": "% ID/g"}]}
